Like-named read-outs stand apart in the source and are kept apart here.
How the values were obtained:
[1] = Cellular cytotoxicity, microscopic evaluation and MTS assay; format: cell-based, human; details: human, PHA-stimulated PBMCs, MTS, read-out: Toxicity CC50 PMBCs
From the text: (§1) Buffy coat preparations from healthy donors were obtained from the Blood Bank in Leuven, Belgium. For the chemokine binding studies, peripheral blood mononuclear cells (PBMCs) activated with phytohemagglutinin (PHA; Sigma, Belgium) were used. Human T-lymphocytic SUP-T1 cells and TZM-bl cells were obtained from the American Type Culture Collection (Rockville, MD) and maintained in RPMI-1640 supplemented with 10% foetal bovine serum (FBS). Human glioblastoma U87.MG and U87.CD4 cells were kindly provided by Dr. D. Littman and used to generate cells expressing CXCR4 or CCR5 [48]. The fluorescent chemokines CXCL12^AF647 and CCL5^AF647 were purchased from Almac. […] HIV-1 NL4-3 (CXCR4-using, X4) and HIV-1 BaL (CCR5-using, R5) were obtained through the AIDS Research and Reference Reagent Program (Division of AIDS, NIAID, NIH).
(§2) Cytotoxicity of the compounds was evaluated after 48 h of incubation at 37 °C in PHA-stimulated PBMCs (5 × 10^5 cells per well in culture medium). Each condition was tested in duplicate. Cytotoxicity was evaluated microscopically, and in addition, the cell viability was assessed using the colorimetric CellTiter 96 AQueous One Solution Cell Proliferation Assay (Promega, Fitchburg, WI, USA), which is based on the reduction of the tetrazolium salt MTS [3-(4,5-dimethylthiazol-2-yl)-5-(3-carboxymethoxyphenyl)-2-(4-sulfophenyl)-2H-tetrazolium] to formazan by metabolically active cells. Absorbance at 490 nm was measured with the Versa-Max ELISA microplate reader (Molecular Devices, Sunnyvale, CA, USA). The cytotoxic concentration 50 (CC50) of each compound was calculated based on the absorbance of negative (i.e., cells without compound) and positive (i.e., only culture medium) control samples.
(§3) The cellular cytotoxicity of all compounds was evaluated in PHA-stimulated PBMCs.

PHA-stimulated PBMCs = experiment: as above; format: cell-based, human; details: 48 h, MTS, read-out: Toxicity CC50 PMBCs
From the text: as §1, §2, §3

CCR5 [2] = target: T1, CCR5 (Homo sapiens, UniProt P51681); experiment: CCL5^AF647 chemokine binding inhibition assay in PBMCs; details: AF647-labelled CCL5 in PBMCs; mean ± SEM; read-out: Competition Binding Assay IC50 CCL5
T1 construct: endogenous in cells
Experimental: Human PBMCs were washed once with assay buffer (Hanks’ balanced salt solution with 20 mM HEPES buffer and 0.2% bovine serum albumin, pH 7.4) and then incubated for 15 min at room temperature with the sample diluted in assay buffer at the indicated concentrations. Subsequently, CXCL12^AF647 (25 ng/mL) or CCL5^AF647 (50 ng/mL) was added to the compound-incubated cells. The cells were incubated for 30 min at room temperature. Thereafter, the cells were washed twice in assay buffer, fixed in 1% paraformaldehyde in PBS, and analysed on the FL4 channel of a FACSCalibur flow cytometer equipped with a 635 nm red diode laser (Becton Dickinson, San Jose, CA, USA). The percentage of inhibition of CXCL12^AF647 or CCL5^AF647 binding was calculated according to the formula: [1 − ((MFI − MFINC)/(MFIPC − MFINC))] × 100, where MFI is the mean fluorescence intensity of the cells incubated with CXCL12^AF647 or CCL5^AF647 in the presence of the inhibitor, MFINC is the mean fluorescence intensity measured in the negative control (i.e., autofluorescence of unlabelled cells), and MFIPC is the mean fluorescence intensity of the positive control (i.e., cells exposed to CXCL12^AF647 or CCL5^AF647 alone).
Binding affinity and selectivity towards CXCR4 were further evaluated through competition binding assays using natural chemokine ligands, tagged with Alexa Fluor 647, as previously reported. […]

HIV-1 NL4-3 (X4) = experiment: HIV infection assay, Tat-regulated luciferase reporter in TZM-bl cells, CXCR4-using strain; format: cell-based; details: replication of HIV-1 NL4-3 (X4) in TZM-bl cells, mean ± SEM, read-out: Anti-HIV Activity IC50 NL4-3 (X4)
From the text: (§4) Buffy coat preparations from healthy donors were obtained from the Blood Bank in Leuven, Belgium. For the chemokine binding studies, peripheral blood mononuclear cells (PBMCs) activated with phytohemagglutinin (PHA; Sigma, Belgium) were used. Human T-lymphocytic SUP-T1 cells and TZM-bl cells were obtained from the American Type Culture Collection (Rockville, MD) and maintained in RPMI-1640 supplemented with 10% foetal bovine serum (FBS). Human glioblastoma U87.MG and U87.CD4 cells were kindly provided by Dr. D. Littman and used to generate cells expressing CXCR4 or CCR5 [48]. The fluorescent chemokines CXCL12^AF647 and CCL5^AF647 were purchased from Almac. […]
(§5) TZM-bl cells were seeded in transparent 96-well plates at 1 × 10^4 cells per well in DMEM (Dulbecco’s modified Eagle medium; Life Technologies, Waltham, MA, USA) with 10% FBS and 10 mM HEPES. […] After 48 h of incubation, the assay plates were analysed. […] The luminescent signal of the lysed cell suspension was analysed in white 96-well plates on a Spectra-Max L luminescence microplate reader (Molecular Devices, Sunnyvale, CA, USA) after a 10 min incubation period in the dark. Luciferase activity induced by HIV-1 Tat protein expression was measured as an assessment of the amount of HIV replication. […]

HIV-1 BaL (R5) = experiment: microbe, parasite or virus in culture; details: read-out: Anti-HIV Activity IC50 BaL (R5)
From the text: as §4, §5

CCR5 [3] = target: T1, CCR5; experiment: CCL3L1-induced intracellular calcium mobilisation in CCR5-transfected U87 cells (FLIPR); format: cell-based; details: mean ± SEM, read-out: Ca^2+ Signalling Assay IC50 CCL3L1
Experimental: CXCR4- or CCR5-positive U87 glioblastoma/astrocytoma cells were loaded with the fluorescent calcium indicator Fluo-3 acetoxymethyl (Molecular Probes) at 4 µM in the assay buffer (Hanks’ balanced salt solution with 20 mM HEPES buffer and 0.2% bovine serum albumin, pH 7.4) for 45 min at room temperature. After thorough washing with the assay buffer, cells were pre-incubated for 10 min at 37 °C in the same buffer with the compounds of interest. The intracellular calcium mobilisation in response to CXCL12 (CXCR4 chemokine ligand) or CCL3L1 (CCR5 chemokine ligand) was then measured at 37 °C by monitoring the fluorescence as a function of time simultaneously in all the wells by using a fluorometric imaging plate reader (FLIPR; Molecular Devices, Sunnyvale, CA, USA).
The potency of the different metal complexes was investigated in a functional downstream receptor signalling assay. The inhibitory effect of the tested compounds was examined by Ca^2+ mobilisation studies with the natural ligands CXCL12 and CCL3L1 for the chemokine receptors CXCR4 and CCR5, respectively. The Ca^2+ ions released from the endoplasmic reticulum were measured over time in CXCR4- or CCR5-transfected U87 glioblastoma cells via their specific interaction with the fluorescent Ca^2+ indicator Fluo-3 [63].

T1 sequence (P51681 whole entry): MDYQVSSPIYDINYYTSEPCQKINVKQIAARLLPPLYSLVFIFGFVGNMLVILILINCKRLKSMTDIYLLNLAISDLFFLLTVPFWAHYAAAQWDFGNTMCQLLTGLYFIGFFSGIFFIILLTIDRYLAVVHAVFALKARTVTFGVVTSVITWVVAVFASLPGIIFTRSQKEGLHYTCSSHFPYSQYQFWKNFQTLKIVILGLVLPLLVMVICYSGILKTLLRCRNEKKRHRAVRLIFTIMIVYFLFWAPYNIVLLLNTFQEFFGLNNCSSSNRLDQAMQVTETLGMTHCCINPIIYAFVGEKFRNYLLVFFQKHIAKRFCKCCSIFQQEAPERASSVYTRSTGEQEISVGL

Row | Compound | CC50 at 48 h [1] | CC50 (PHA-stimulated PBMCs) | IC50 (CCR5 [2]) | IC50 (HIV-1 NL4-3 (X4); Human immunodeficiency virus 1, NL43) | IC50 (HIV-1 BaL (R5); Human immunodeficiency virus 1, BAL, TZM-bl) | IC50 (CCR5 [3]) | IC50 (HIV-1 NL4-3 (X4)) | IC50 (HIV-1 BaL (R5); replication of HIV-1 BaL (R5) in TZM-bl cells, mean ± SEM)
1 | c1cc(CN2CCCNCCNCCCNCC2)ccc1CN1CCCNCCNCCCNCC1 [AMD3100, reference compound] | ≥ 100 µM | > 100 µM | > 1 µM | 0.00042 ± 0.00014 µM | > 20 µM | > 20 µM | – | –
2 | [Cu+2].[Cu+2].c1cc(CN2CCCNCCNCCCNCC2)ccc1CN1CCCNCCNCCCNCC1 [Cu2L^1] | – | ≥ 100 µM | – | – | – | – | – | –
3 | Maraviroc [reference compound] | – | – | – | – | – | – | > 20 µM | 0.0029 ± 0.0012 µM

Source: paper PMC11360128, “Rigid Macrocycle Metal Complexes as CXCR4 Chemokine Receptor Antagonists: Influence of Ring Size” (Pharmaceutics, 2024)
